Laboratory results reported in patent US11446347B2, “Antithrombotic composition comprising Angelica gigas Nakai extract” (Astrogenesis Co., Ltd., priority 2018, dated 2022).

Tested on: thrombus-induced mouse model
Assay: In-vivo antithrombotic test, Rota-rod, collagen/epinephrine thrombus-induced mouse model
Parameters: species or system ICR mice
Conditions: thrombus induced 90 min after drug, Rota-rod 24 rpm after 15 min
Experimental: As for the experimental animals, 5-week-old female ICR mice provided by YoungBio were stabilized in an animal laboratory at a temperature of 24±1° C., a humidity of 55±5% in a 12-hour day-night cycle for 1 week and used in the experiments.
The change in behavioral capacity was evaluated for the prepared thrombus-induced mouse model using Rota-rod, and the antithrombotic effect of the Angelica gigas Nakai extract was evaluated. The thrombus-induced mouse model was prepared as follows. A 6-week-old ICR mouse (about 20 to 25 g) stabilized as an experimental mouse was prepared, and subjected to Rota-rod training, and the reference value was created three times, and the rotation speed was set to 24 rpm, and objects withstanding without falling at a rotation speed of 300 or more were selected. […] After 15 minutes, Rota-rod testing was repeated 3 times (rotation speed: 24 rpm), and the difference in athletic performance was analyzed by the following Equation: Protection rate (%)=[(Total number of individuals−Number of killed or paralyzed individuals)/Total number of individuals]×100
Number of killed or paralyzed individuals: The number of individuals who fell at a rotation speed of 24 rpm or less in Rota-rod testing at a rotation speed of 150 or less)

SMILES | Number of killed or paralyzed individuals / Number of total individuals (dose 100 mg/kg) | Protection (%) (dose 100 mg/kg) | Number of killed or paralyzed individuals / Number of total individuals (dose 10 mg/kg) | Protection (%) (dose 10 mg/kg)
CC(=O)Oc1ccccc1C(=O)O [ASA (Aspirin), acetylsalicylic acid] | 11/20 | 45% | – | –
CC(C)=CC(=O)O[C@H]1Cc2cc3ccc(=O)oc3cc2OC1(C)C [Decursin, decursin] | – | – | 11/18 | 38.9%
CC1(C)Oc2cc3oc(=O)ccc3cc2C[C@@H]1O [Decursinol, decursinol] | – | – | 12/19 | 36.8%
